# Data from ChEMBL document CHEMBL1201862, “PubChem BioAssay data set” (2004).
# Calls of active or inactive are those of the source.
# Key:
# Vero = assay: cells; assay type: functional; conditions: Chlorocebus sabaeus
# Mu-type opioid receptor = Mu-type opioid receptor (Homo sapiens, UniProt P35372); assay: (§1) Counterscreen for agonists of heterodimerization of the mu 1 (OPRM1) and delta 1 (OPRD1) opioid receptors: Luminescence-based cell-based high throughput dose response assay to identify agonists of OPRM1 homodimerization.; assay type: functional
# [1] = biological target: Delta-type opioid receptor (Homo sapiens, UniProt P41143); assay: as §1, with “of OPRD1” for “of OPRM1”, “homodimerization. [Related pubchem assays (depositor defined):AID504326, AID504355, AID504692, AID504904, AID504905]” for “homodimerization.”; assay type: functional
# [2] = biological target: T1, Short transient receptor potential channel 4 (Mus musculus, UniProt Q9QUQ5); assay: calcium entry via TRPC4 opening agents – cell-based, HEK293 TRPC4/mu-opioid, Fluo-4 calcium, dose response (AID 434937); assay type: functional
# T1 sequence (Q9QUQ5 whole entry): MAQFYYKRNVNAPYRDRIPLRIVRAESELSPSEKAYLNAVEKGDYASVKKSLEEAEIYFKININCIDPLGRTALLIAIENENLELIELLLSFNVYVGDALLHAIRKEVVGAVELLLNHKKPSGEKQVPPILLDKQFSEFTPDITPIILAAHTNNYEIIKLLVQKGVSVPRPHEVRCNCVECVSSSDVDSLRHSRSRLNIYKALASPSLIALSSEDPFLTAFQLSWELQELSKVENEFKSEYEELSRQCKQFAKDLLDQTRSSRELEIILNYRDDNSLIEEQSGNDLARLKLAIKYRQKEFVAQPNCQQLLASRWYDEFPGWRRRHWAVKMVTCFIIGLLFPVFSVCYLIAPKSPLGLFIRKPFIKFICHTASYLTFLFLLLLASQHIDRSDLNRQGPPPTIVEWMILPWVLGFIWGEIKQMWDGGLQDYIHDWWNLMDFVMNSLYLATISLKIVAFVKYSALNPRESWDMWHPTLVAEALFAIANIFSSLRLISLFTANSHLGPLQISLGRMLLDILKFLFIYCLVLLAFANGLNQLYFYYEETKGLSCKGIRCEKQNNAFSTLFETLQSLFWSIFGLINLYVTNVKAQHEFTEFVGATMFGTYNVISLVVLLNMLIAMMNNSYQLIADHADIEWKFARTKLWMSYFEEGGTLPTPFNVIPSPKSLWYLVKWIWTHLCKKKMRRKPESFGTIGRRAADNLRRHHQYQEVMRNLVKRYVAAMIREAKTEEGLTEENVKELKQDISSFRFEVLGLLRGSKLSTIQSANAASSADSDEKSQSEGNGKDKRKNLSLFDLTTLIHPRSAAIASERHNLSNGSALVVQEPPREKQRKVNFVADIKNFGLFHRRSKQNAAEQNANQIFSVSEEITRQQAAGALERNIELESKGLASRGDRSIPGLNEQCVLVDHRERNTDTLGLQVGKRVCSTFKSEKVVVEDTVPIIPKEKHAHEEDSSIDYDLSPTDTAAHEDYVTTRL
# [3] = biological target: 5-hydroxytryptamine receptor 5A (Homo sapiens, UniProt P47898); assay: Counterscreen for agonists of OPRM1-OPRD1 heterodimerization: luminescence-based cell-based high throughput dose response assay to identify agonists of 5-hydroxytryptamine (serotonin) 5A receptor (HTR5A). [Related pubchem assays (depositor defined):AID504326, AID504355, AID504692, AID504904, AID504905]; assay type: functional
# [4] = biological target: T2, High affinity choline transporter 1 (Homo sapiens, UniProt Q9GZV3); assay: human choline transporter blockers, potency – cell-based, 5-point CRC, membrane potential dye, dose response (AID 504840); assay type: functional
# T2 sequence (Q9GZV3 whole entry): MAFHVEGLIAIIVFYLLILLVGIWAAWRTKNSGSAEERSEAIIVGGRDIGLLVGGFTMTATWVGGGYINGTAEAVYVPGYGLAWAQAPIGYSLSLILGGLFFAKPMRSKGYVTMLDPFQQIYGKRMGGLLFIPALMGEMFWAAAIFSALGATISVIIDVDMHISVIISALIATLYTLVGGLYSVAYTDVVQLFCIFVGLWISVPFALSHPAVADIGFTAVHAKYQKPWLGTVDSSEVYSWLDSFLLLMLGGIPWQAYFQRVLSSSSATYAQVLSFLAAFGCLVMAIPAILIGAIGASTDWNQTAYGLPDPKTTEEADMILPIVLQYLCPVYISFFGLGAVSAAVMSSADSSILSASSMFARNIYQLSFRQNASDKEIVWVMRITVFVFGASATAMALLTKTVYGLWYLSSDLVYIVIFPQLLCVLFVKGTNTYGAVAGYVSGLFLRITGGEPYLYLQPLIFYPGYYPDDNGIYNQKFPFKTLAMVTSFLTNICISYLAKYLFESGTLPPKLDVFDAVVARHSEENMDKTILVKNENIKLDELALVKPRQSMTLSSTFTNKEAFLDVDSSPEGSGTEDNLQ
# [5] = biological target: Dual specificity protein kinase CLK1 (Homo sapiens, UniProt P49759); assay: inhibition of human CLK1 activity – biochemical, cherry-picked samples, selectivity assay for Dyrk1A inhibitor project, dose response (AID 588811)
# HEK293 = assay: EBV LMP1 TES2 canonical NF-kB signalling blockers – cell-based, HEK293, luciferase, cherry-pick, dose response (AID 588343); assay type: functional; conditions: Homo sapiens
# [6] = biological target: T1, Short transient receptor potential channel 4; assay: block of DAMGO-driven TRPC4 calcium entry – cell-based, HEK293 TRPC4/mu-opioid, Fluo-4 calcium, dose response (AID 434942); assay type: functional;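 note: potency of inhibitors blocking the TRPC4 calcium response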
# cells = assay type: functional
# [7] = Luminescence Cell-Based Dose Response HTS to Identify Activators of Luciferase Translation or Activity in H4 […] Cells. [Related pubchem assays: 1829 (Project Summary), 1814 (Primary HTS)]; assay type: functional
# [8] = Luminescence Cell-Based Dose Confirmation HTS to Identify Activators of 5'UTR Stem-Loop Driven Alpha-Synuclein mRNA Translation in H4 Neuroglioblastoma Cells. [Related pubchem assays: 1829 (Project Summary), 1814 (Primary HTS)]; assay type: functional
# Escherichia coli = assay: microbe, parasite or virus in culture
# [9] = biological target: 26S proteasome non-ATPase regulatory subunit 14 (Homo sapiens, UniProt O00487); assay: inhibition of proteasome subunit RPN11 – biochemical, fluorescence polarization, uHTS hits, confirmation (AID 602368); assay type: functional
# [10] = biological target: 72 kDa type IV collagenase (Homo sapiens, UniProt P08253); assay: Dose Response validation of uHTS RPN11 inhibitor hits using a MMP-2 Fluorescence assay.; assay type: functional
# Prothrombin = Prothrombin (Bos taurus, UniProt P00735); assay: thrombin protease inhibitors – biochemical, fluorescence polarization, uHTS hits, dose response (AID 602369); assay type: functional
# H9c2 = assay: cells; assay type: functional, cell-based; conditions: Rattus norvegicus, H9c2, Myocardium;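 note: confirmatory concentration-response retest of ultra-high-throughput screening hits for modulation of myocardial damage; cell death induced by hydrogen peroxide oxidative stress; compound pretreatment for 60 min then peroxide exposure for 2 h; potency is for protecting the cells against peroxide damage rather than for killing them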
# [11] = biological target: T3, Ubiquitin-conjugating enzyme E2 N (Homo sapiens, UniProt P61088); assay type: functional
# T3 sequence (P61088 whole entry): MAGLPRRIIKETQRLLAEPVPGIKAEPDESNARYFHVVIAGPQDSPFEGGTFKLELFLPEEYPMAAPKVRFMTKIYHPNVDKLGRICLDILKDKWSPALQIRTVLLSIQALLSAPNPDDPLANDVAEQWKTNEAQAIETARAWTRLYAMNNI
# Bcl-2-related protein A1 = biological target: T4, Bcl-2-related protein A1 (Mus musculus, UniProt Q07440); assay type: functional;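 note: confirmatory dose–response counterscreen on Bfl-1, used to check hits from a UBC13 polyubiquitin inhibitor campaign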
# T4 sequence (Q07440 whole entry): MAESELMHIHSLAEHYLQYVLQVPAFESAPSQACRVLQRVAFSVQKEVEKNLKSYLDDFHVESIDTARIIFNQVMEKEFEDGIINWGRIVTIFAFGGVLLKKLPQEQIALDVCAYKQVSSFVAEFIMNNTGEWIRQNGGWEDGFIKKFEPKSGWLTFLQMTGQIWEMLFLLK
# [12] = biological target: T5, Replicative DNA helicase DnaB (Mycobacterium tuberculosis, UniProt P9WMR3); assay: DnaB intein splicing inhibitors, dose response, biochemical, cell-free fluorescence (AID 449749); assay type: functional
# T5 sequence (P9WMR3 whole entry): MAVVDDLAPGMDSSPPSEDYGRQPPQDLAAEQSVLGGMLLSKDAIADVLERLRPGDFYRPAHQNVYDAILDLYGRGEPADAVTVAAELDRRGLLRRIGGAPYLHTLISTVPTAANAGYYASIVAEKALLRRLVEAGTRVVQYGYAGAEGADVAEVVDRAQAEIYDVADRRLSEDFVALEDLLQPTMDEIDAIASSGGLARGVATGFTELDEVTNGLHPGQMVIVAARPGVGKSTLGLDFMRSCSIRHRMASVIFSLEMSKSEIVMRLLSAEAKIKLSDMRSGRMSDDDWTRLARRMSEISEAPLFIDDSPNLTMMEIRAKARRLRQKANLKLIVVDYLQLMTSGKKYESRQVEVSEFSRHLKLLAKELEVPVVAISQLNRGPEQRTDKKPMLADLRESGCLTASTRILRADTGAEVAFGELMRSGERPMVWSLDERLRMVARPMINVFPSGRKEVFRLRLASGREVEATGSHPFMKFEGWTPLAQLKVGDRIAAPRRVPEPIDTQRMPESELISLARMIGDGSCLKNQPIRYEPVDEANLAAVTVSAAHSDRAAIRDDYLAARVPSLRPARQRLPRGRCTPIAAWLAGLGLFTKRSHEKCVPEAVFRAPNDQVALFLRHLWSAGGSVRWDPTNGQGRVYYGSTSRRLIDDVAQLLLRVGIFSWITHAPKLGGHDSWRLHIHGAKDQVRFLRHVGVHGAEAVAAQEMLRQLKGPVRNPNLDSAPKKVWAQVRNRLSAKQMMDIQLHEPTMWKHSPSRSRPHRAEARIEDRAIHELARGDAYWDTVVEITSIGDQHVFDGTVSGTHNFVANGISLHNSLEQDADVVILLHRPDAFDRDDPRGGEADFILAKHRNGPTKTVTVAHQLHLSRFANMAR
# Protein RecA = biological target: T6, Protein RecA (Mycobacterium tuberculosis, UniProt P9WHJ3); assay: Fluorescence Cell-Free Homogeneous Dose Retest to Identify Inhibitors of RecA-Intein Splicing Activity. [Related pubchem assays (depositor defined):AID2097, AID2223, AID489010, AID492950]; assay type: functional
# T6 sequence (P9WHJ3 whole entry): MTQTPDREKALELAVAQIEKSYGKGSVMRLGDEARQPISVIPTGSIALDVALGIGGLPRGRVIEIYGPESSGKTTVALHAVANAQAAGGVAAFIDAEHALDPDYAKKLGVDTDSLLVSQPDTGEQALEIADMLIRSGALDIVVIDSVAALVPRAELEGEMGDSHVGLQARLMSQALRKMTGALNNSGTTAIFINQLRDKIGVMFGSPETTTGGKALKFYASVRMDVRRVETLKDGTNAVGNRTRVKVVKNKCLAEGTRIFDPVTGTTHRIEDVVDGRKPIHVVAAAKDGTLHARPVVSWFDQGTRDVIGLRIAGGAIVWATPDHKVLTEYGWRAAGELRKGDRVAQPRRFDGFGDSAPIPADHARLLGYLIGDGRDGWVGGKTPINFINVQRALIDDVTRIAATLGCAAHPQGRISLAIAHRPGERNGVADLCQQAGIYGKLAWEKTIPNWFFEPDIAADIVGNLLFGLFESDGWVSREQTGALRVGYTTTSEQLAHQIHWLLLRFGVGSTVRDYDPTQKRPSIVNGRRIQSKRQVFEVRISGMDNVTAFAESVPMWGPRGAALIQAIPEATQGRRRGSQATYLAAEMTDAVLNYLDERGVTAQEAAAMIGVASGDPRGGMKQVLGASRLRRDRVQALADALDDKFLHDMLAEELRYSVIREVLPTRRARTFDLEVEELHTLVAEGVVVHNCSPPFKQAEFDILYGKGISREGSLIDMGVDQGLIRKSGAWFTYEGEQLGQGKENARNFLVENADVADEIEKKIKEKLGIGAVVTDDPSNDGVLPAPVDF
# [13] = biological target: T3, Ubiquitin-conjugating enzyme E2 N; assay type: functional; remark: listed apart in the source
# Chain of Delta-type opioid receptor (P41143 whole entry): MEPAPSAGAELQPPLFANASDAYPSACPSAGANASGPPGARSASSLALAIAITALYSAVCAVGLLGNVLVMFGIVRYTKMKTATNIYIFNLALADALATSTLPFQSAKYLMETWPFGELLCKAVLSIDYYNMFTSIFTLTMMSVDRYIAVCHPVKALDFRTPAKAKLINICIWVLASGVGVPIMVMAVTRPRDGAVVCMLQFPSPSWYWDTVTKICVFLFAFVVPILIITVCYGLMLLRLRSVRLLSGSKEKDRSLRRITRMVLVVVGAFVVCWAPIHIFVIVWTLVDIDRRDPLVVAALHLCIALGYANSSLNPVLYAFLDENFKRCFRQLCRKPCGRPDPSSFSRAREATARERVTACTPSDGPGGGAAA
# Chain of Mu-type opioid receptor (P35372 whole entry): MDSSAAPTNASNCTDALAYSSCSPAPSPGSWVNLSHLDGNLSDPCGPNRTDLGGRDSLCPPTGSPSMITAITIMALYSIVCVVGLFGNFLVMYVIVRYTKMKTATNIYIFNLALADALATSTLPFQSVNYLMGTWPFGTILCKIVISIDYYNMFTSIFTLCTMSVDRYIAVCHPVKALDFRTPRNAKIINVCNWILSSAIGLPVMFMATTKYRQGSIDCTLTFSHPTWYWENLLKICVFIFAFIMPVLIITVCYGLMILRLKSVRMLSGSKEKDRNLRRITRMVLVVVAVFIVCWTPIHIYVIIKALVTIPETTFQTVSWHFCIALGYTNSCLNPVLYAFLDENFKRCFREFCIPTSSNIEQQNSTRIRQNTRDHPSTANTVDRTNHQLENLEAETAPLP
# Chain of 5-hydroxytryptamine receptor 5A (P47898 whole entry): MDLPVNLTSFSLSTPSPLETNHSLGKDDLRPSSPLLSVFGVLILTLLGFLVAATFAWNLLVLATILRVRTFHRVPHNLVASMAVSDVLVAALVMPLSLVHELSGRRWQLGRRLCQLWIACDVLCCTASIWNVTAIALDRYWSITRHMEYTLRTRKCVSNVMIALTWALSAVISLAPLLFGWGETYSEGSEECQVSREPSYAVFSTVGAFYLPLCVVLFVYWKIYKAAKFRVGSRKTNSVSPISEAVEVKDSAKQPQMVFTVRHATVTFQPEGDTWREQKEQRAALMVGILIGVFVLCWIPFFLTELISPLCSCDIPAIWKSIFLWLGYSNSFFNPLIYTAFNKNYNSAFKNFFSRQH
# Chain of Dual specificity protein kinase CLK1 (P49759 whole entry): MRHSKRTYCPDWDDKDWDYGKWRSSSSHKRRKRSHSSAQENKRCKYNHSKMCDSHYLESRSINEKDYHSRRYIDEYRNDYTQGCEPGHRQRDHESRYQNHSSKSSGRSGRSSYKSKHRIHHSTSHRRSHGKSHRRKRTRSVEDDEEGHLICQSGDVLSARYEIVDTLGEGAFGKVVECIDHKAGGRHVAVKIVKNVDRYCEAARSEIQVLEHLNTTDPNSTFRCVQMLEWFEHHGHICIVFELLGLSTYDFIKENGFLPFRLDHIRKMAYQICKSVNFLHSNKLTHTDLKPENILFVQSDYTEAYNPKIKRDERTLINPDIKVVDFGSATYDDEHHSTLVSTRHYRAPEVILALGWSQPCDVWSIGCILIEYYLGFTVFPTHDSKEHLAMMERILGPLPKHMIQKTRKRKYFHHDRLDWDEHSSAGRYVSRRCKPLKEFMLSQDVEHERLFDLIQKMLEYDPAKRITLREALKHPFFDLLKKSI
# Chain of 72 kDa type IV collagenase (P08253 whole entry): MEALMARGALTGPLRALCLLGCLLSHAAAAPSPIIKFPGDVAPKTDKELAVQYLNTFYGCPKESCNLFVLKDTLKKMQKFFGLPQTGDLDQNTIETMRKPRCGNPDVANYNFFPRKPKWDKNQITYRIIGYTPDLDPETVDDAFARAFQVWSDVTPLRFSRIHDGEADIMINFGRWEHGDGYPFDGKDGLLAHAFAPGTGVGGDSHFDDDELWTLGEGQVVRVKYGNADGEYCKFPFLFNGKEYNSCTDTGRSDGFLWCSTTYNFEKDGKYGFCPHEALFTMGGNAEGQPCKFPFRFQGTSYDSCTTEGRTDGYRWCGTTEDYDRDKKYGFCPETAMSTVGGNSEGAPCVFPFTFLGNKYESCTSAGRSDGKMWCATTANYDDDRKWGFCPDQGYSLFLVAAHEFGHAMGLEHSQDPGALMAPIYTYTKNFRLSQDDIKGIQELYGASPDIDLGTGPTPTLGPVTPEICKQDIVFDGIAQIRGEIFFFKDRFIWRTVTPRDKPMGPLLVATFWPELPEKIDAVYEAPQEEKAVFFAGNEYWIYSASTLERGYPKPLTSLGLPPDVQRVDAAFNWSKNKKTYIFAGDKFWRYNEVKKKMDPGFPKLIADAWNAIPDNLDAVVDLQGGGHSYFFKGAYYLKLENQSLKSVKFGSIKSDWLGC
# Chain of 26S proteasome non-ATPase regulatory subunit 14 (O00487 whole entry): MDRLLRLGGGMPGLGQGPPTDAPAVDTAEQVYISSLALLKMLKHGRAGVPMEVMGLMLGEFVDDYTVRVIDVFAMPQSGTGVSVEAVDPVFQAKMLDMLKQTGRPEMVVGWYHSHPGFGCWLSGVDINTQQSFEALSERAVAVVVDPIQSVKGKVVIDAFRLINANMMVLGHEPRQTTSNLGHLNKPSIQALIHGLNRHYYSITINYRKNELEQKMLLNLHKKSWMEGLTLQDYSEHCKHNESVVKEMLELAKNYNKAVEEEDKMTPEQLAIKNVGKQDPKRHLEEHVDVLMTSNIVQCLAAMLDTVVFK
smiles,measurement,setting,value
O=C1N(c2ccccc2C(F)(F)F)O[C@]1(c1ccccc1)C1CCCCC1,CC50,Vero,> 25 µM (active)
COc1ccc(C(CNC(=O)/C=C/c2c(Cl)nc3ccccn23)N(C)C)cc1 (stereo not given),EC50,Mu-type opioid receptor,> 92.5 µM (inactive)
same,EC50,[1],> 92.5 µM (inactive)
same,EC50,[2],0.473 µM (active)
same,EC50,[3],> 92.5 µM (inactive)
CN(C)C(CN=C(S)Nc1ccccc1)c1cccnc1 (stereo not given),EC50,Mu-type opioid receptor,> 92.4 µM (inactive)
same,EC50,[1],> 92.4 µM (inactive)
same,EC50,[2],0.149 µM (active)
same,EC50,[3],> 92.4 µM (inactive)
CCOC(=O)N1CCN(C(=O)C2CCCN(c3ncnc4c3nc3n4CCCCC3)C2)CC1 (stereo not given),IC50,[4],12.9 µM (active)
c1csc(CNc2ncnc3ccc(-c4ccoc4)cc23)c1,AC50,[5],0.00979 µM (active)
same,AC50,HEK293,19 µM (active)
COc1cccc(CC2(CO)CCCN(Cc3ccccc3-c3ccco3)C2)c1 (stereo not given),EC50,Mu-type opioid receptor,> 92.5 µM (inactive)
same,EC50,[6],1.19 µM (active)
same,EC50,[1],> 92.5 µM (inactive)
same,EC50,[2],2.66 µM (active)
same,EC50,[3],> 92.5 µM (inactive)
CCc1cc2c(=O)n(C(C)C(=O)OC3CCCCC3)cnc2s1 (stereo not given),IC50,cells,17.9 µM (active)
same,EC50,[7],67.6 µM (active)
same,EC50,[8],105 µM (active)
same,AC50,Escherichia coli,54.4 µM (active)
Fc1ccc(N=C(S)Nc2ccc(F)c(Cl)c2)cc1Cl,IC50,[4],7.94 µM (active)
O=C(Nc1ccccc1Oc1ccccc1)c1ccc(Br)o1,AC50,Escherichia coli,> 380 µM (inactive)
CN(C(=O)COC(=O)CNC(=O)C12CC3CC(CC(C3)C1)C2)C1CCS(=O)(=O)C1 (stereo not given),AC50,Escherichia coli,27.2 µM (active)
N=c1n(CC(=O)c2cccc([N+](=O)[O-])c2)c2ccccc2n1Cc1ccccc1,CC50,Vero,11.2 µM (active)
COc1ccc2o/c(=N/NC(=O)c3cccs3)c(C(N)=O)cc2c1,IC50,[9],38.5 µM (active)
same,IC50,[10],> 100 µM (inactive)
same,IC50,Prothrombin,79.7 µM (active)
same,IC50,H9c2,> 79 µM (inactive)
O=C(CSCc1ccc([N+](=O)[O-])cc1)N/N=C/c1cccnc1,IC50,[11],10.9 µM (active)
same,IC50,Bcl-2-related protein A1,> 20 µM (inactive)
same,AC50,[12],> 380 µM (inactive)
same,EC50,Protein RecA,> 380 µM (inactive)
same,IC50,[13],8.26 µM (active)
Cc1noc(CN(C)c2ncnc3ccc(-c4ccc5c(c4)OCO5)cc23)n1,AC50,[5],< 0.00195 µM (active)
